The values below are quoted from earlier work in US8618066B1 (priority 2003, dated 2013).

Entries after “also recorded” stand apart in the source; their conditions may differ. Where two headings read alike, the source gives them in different places. No end group written: not given here.

The subject of this data set is Gram+ & Gram− bacteria, fungi, virus, mammalian/cancer cells. Conditions: cited from earlier work.
Setting [1] is: classes of organisms/cells the peptide is active against.

As for “AC-AMP2: peptide, source Amaranthus caudatus (VGECVRGRCPSGMCCSQFGYCGKGPKYCGR; ends and bridges not checked; cysteine pairing not given here; listed as Amaranthus caudatus)”, the Activity result is “Gram+, Fungi”.

Take “ADENOREGULIN: peptide, source Two coloured leaf frong (GLWSKIKEVGKEAAKAAAKAAGKAALGAVSEAV; Phyllomedusa bicolor; Adenoregulin)”: the Activity result under setting [1] is recorded as “Gram+ & Gram−, Fungi”.

For the substance “AFP1: peptide, source Turnip (QKLCERPSGTWSGVCGNNNACKNQCIN; AFP1; listed as Brassica rapa)”, the Activity result is listed as “Fungi”. For the substance “AMP1 (MJ-AMP1): peptide, source Garden four-o'clock (QCIGNGGRCNENVGPPYCCSGFCLRQPGQGYGYCKNR; antimicrobial peptidic agent1 (MJ-antimicrobial peptidic agent1); listed as Mirabilis jalapa)”, the Activity result was “Gram+, Fungi”. On to “AMP2 (MJ-AMP2): peptide, source Garden four-o'clock (CIGNGGRCNENVGPPYCCSGFCLRQPNQGYGVCRNR; antimicrobial peptidic agent2 (MJ-antimicrobial peptidic agent2); listed as Mirabilis jalapa)”, for which the Activity result is “Gram+, Fungi”.

For the substance “Alpha-basrubrin (Fragment): source Malabar spinach (GADFQECMKEHSQKQHQHQG; Alpha-basrubrin (Fragment); listed as Basella alba)”, the Activity entry is on record as “Virus, Fungi”.

Take “Androctonin: peptide, source Androctonus Australis (RSVCRQIKICRRRGGCYYKCTNRPY; listed as Androctonus australis)”: the Activity entry under setting [1] was “Gram+ & Gram−, Fungi”. In the case of “Anti-fungal protein 1 (pafp-s): source Phytolacca Americana (AGCIKNGGRCNASAGPPYCCSSYCFQIAGQSYGVCKNR; listed as Phytolacca americana)”, the Activity entry is reported as “Fungi”. With “Antimicrobial peptide 1: peptide, source Common ice plant (AKCIKNGKGCREDQGPPFCCSGFCYRQVGWARGYCKNR; Antimicrobial peptide 1; listed as Mesembryanthemum crystallinum)”, the Activity result was “Gram+ & Gram−, Fungi”.

In the case of “Aurein 1.1: peptide, source Southern bell frog (GLFDIIKKIAESI; Aurein 1.1; listed as Litoria raniformis)”, the Activity entry was “Gram+ & Gram−, Fungi”. Turning to “BMAP-27: peptide, source Bovine (GRFKRFRKKFKKLFKKLSPVIPLLHLG; BMAP-27; listed as Bos taurus)”, the Activity entry is on record as “Gram+ & Gram−, Fungi”. Regarding “BMAP-28: peptide, source Bovine (GGLRSLGRKILRAWKKYGPIIVPIIRIG; BMAP-28; listed as Bos taurus)”, the Activity result was “Gram+ & Gram−, Fungi”. With “BMAP-34: peptide, source Bovine (GLFRRLRDSIRRGQQKILEKARRIGERIKDIFRG; BMAP-34; listed as Bos taurus)”, the Activity result is on record as “Gram+ & Gram−, Fungi”. Take “Brevinin-1BB: peptide, source Rio Grande leopard frog (FLPAIAGMAAKFLPKIFCAISKKC; Brevinin-1BB; listed as Rana berlandieri)”: the Activity result is given as “Gram+ & Gram−, Fungi”.

Turning to “Buforin I: peptide, source Asian toad (AGRGKQGGKVRAKAKTRSSRAGLQFPVGRVHRLLRKGNY; Bufo bufo gargarizans; Buforin 1)”, the Activity result is “Gram+ & Gram−, Fungi”. For “Cecropin A: peptide, source Nocutuid moth (RWKVFKKIEKVGRNIRDGVIKAAPAIEVLGQAKAL; Cecropin A; listed as Heliothis virescens)”, the Activity entry was “Gram+ & Gram−, Fungi”. For “Cecropin B: peptide, source Chinese oak silk moth (KWKIFKKIEKVGRNIRNGIIKAGPAVAVLGEAKAL; Cecropin B; listed as Antheraea pernyi)”, the Activity result is reported as “Gram+ & Gram−, Fungi”. Take “Dhvar4: peptide, source Synthesis (KRLFKKLLFSLRKY; Synthesis dhvar4)”: under setting [1], the Activity entry is listed as “Gram+ & Gram−, Fungi”. For “Dhvar5: peptide, source Synthesis (LLLFLLKKRKKRKY; Synthesis dhvar5)”, under setting [1], the Activity entry is listed as “Gram+ & Gram−, Fungi”. Turning to “Dolabellanin B2: peptide, source Sea hare (SHQDCYEALHKCMASHSKPFSCSMKFHMCLQQQ; Dolabellanin B2; listed as Dolabella auricularia)”, the Activity entry is “Gram+ & Gram−, Fungi”. With FRLHF [SEQ ID No. 199], the Activity result is reported as “Gram+ & Gram−, Fungi”. Regarding FRLKFHF [SEQ ID No. 197], the Activity entry is “Gram+ & Gram−, Fungi”. With FRLKHI [SEQ ID No. 198], the Activity entry is on record as “Gram+ & Gram−, Fungi”. Take “GNCP-1: peptide, source Guinea pig (RRCICTTRTCRFPYRRLGTCIFQNRVYTFCC; GNCP-1; listed as Cavia cutleri)”: the Activity result is reported as “Gram+ & Gram−, Virus, Fungi”. As for “GNCP-2: peptide, source Guinea pig (RCICTTRTCRFPYRRLGTCLFQNRVYTFCC; GNCP-2; listed as Cavia cutleri)”, the Activity entry is given as “Gram+ & Gram−, Virus, Fungi”.

As for “Gaegurin-1: peptide, source Wrinkled frog (SLFSLIKAGAKFLGKNLLKQGACYAACKASKQC; Gaegurin-1; listed as Rana rugosa)”, the Activity result is “Gram+ & Gram−, Fungi”. For the substance “Ginkbilobin: source Ginkgo (ANTAFVSSAHNTQKIPAGAPFNRNLRAMLADLRQNAAFAG; Ginkbilobin; listed as Ginkgo biloba)”, the Activity result is “Gram+ & Gram−, Virus, Fungi”. As to “Gomesin: peptide, source Synthetic (QCRRLCYKQRCVTYCRGR; Synthetic Gomesin)”, the Activity entry under setting [1] is “Gram+ & Gram−, Fungi,; also recorded: Mammalian cells”. As to HNP-1 Defensin: peptide, source Human, the Activity result is given as “Gram+ & Gram−, Virus, Fungi”.

Take “HNP-2 Defensin: peptide, source Human (CYCRIPACIAGERRYGTCIYQGRLWAFCC; HNP-2 Defensin; listed as Homo sapiens)”: the Activity result is given as “Gram+ & Gram−, Virus, Fungi”. With HNP-3 Defensin: peptide, source Human, the Activity result is “Gram+ & Gram−, Virus, Fungi”. With “HNP-4 Defensin: peptide, source Human (VCSCRLVFCRRTELRVGNCLIGGVSFTYCCTRV; HNP-4 Defensin; listed as Homo sapiens)”, the Activity entry was “Gram+ & Gram−, Fungi”. For the substance “HNP-5 Defensin: peptide, source Human (QARATCYCRTGRCATRESLSGVCEISGRLYRLCCR; HNP-5 Defensin; listed as Homo sapiens)”, the Activity result was “Gram+ & Gram−, Fungi”. Consider “HNP-6 Defensin: peptide, source Human (STRAFTCHCRRSCYSTEYSYGTCTVMGINHRFCCL; HNP-6 Defensin; listed as Homo sapiens)”, for which the Activity entry is “Gram+ & Gram−, Fungi”. In the case of “Hepcidin 20: peptide, source Human (ICIFCCGCCHRSKCGMCCKT; Hepcidin 20; listed as Homo sapiens)”, the Activity result is recorded as “Fungi”. For “Hepcidin 25: peptide, source Human (DTHFPICIFCCGCCHRSKCGMCCKT; Hepcidin 25; listed as Homo sapiens)”, the Activity entry is “Fungi”. Turning to “Hexapeptide: peptide, source Bovine (RRWQWR; hexapeptide; listed as Bos taurus)”, the Activity entry is reported as “Gram+ & Gram−, Virus, Fungi,”. For “Histatin 1: peptide, source Crab eating macaque (DSHEERHHGRHGHHKYGRKFHEKHHSHRGYRSNYLYDN; Histatin 1; listed as Macaca fascicularis)”, the Activity entry is “Gram+ & Gram−, Fungi”. “Histatin 3: peptide, source Human (DSHAKRHHGYKRKFHEKHHSHRGYRSNYLYDN; Histatin 3; listed as Homo sapiens)”: the Activity result is recorded as “Gram+ & Gram−, Fungi”.

Turning to “Histatin 5: peptide, source Human (DSHAKRHHGYKRKFHEKHHSHRGY; Histatin 5; listed as Homo sapiens)”, the Activity result is reported as “Gram+ & Gram−, Fungi”.

Consider “Histatin 8: antimicrobial peptide, Table 1 (KFHEKHHSHRGY; Histatin 8)”, for which the Activity result is “Gram+ & Gram−, Fungi”.

In the case of “Histone H2A (fragment): source Rainbow trout (AERVGAGAPVYL; Oncorhynchus mykiss; Histone H2A (Fragment))”, the Activity result is “Gram+, Fungi”. As to “Histone H2B-1 (HLP-1) (Fragment): source Rainbow trout (PDPAKTAPKKGSKKAVTKA; Oncorhynchus mykiss; Histone H2B-1(HLP-1)(Fragment))”, the Activity entry is reported as “Gram+ & Gram−, Fungi”. Consider “Histone H2b-3 (HLP-3) (Fragment): source Rainbow trout (PDPAKTAPKKKSKKAVT; Oncorhynchus mykiss; Histone H2B-3(HLP-3)(Fragment))”, for which the Activity entry is reported as “Fungi”. “Ib-AMP3: peptide, source Impatiens balsamina (RHRCCAWGPGRKYCKRWC; Ib-antimicrobial peptidic agent3; listed as Impatiens balsamina)”: the Activity result was “Gram+, Fungi”.

“Ib-AMP4: peptide, source Impatiens balsamina (GRRCCGWGPGRRYCRRWC; Ib-antimicrobial peptidic agent4; listed as Impatiens balsamina)”: the Activity entry is reported as “Gram+ Fungi”. As for “Indolicidin: peptide, source Bos Taurus (ILPWKWPWWPWRR; listed as Bos taurus)”, the Activity result is “Gram+ & Gram−, Virus, Fungi”.

Regarding “Lactoferricin B: peptide, source Bovine (FKCRRWQWRMKKLGAPSITCVRRAF; Lactoferricin B; listed as Bos taurus)”, the Activity result was “Gram+ & Gram−, Virus, Fungi,”.
